The results in this text go back to US12410187B2, “Fused tricyclic compounds useful as anticancer agents” (ASTRAZENECA AB, priority 2019, dated 2025).

For series [1], the target named is T1, KRasG12C (Homo sapiens, UniProt P01116, G12C).
T1 construct: biotin (biotinylated); made in house
Kind of series: KRasG12C functional assay (HTRF/FRET nucleotide exchange and Raf RBD binding). In kind it is biochemical. To be noted: KRasG12C functional assay IC50, GDP loaded biotinylated KRasG12C, samples incubated for 4 hrs, FRET readout; single experiment or average of two or more. In outline:
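Assay buffer was 20 mM HEPES pH 7.5, 5 mM MgCl2, 150 mM NaCl, 0.01% Tween 20. A detection mix (20 nM GST-Raf RBD, 4 μg/ml anti-GST XL665, 50 mM KF, 4 h equilibration) received 0.6 μM GTPγS and 0.08 μM SOS (mix levels). SOS-driven GTPγS loading was read as HTRF from RBD binding, and IC50 was fitted from normalised FRET dose-response.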

Series [2] concerns the target T1, KRasG12C. Kind of series: KRasG12C mass spectrometry adducting assay. In kind it is binding. To be noted: test compound final concentration 10 μM, 4 hours reaction with 4 μM GDP loaded biotinylated KRasG12C. Here is the method:
Enzyme solutions were prepared in assay buffer containing 20 mM HEPES (pH 7.5), 5 mM MgCl2, and 150 mM NaCl. […] The plate was sealed before reading on a Xevo G2 QTOF (Waters) and Acquity LC system (Waters). 10 μl of sample was injected onto a Xbridge BEH300; C4; 3.5 um; 2.1×50 mm column (Waters) running a 3 minute gradient. Blank samples were run in between each test sample.
Data was analysed in Mass Lynx software (Waters), the Total ion count (TIC) trace was used and the eluted protein peak data combined. Using the combined spectrum the data was deconvoluted using MaxEnt1 method. The peak area for apo-protein KRas^G12C (APO) and KRAS+relative cmpd mass (adduct) were measured, and a percentage adduct was calculated using the following calculation: Percent adduct=100*(area of adduct peak/(sum of APO+adduct peaks).
The data from this mass spectrometry adducing assay is presented in the column labelled KRasG12C M.S. Binding Mean adduct % in Table A below.

A further series relates to MDR1 (Pgp) and BCRP. Kind of series: Blood brain barrier penetrant assessment: efflux ratio in MDCK_MDR1_BCRP cells. In kind it is in vitro ADME. Particulars: human, MDCK cells doubly transfected with MDR1 (Pgp) and BCRP, ratio of 2 or less = potential for good BBB penetration, read-out: Hu MDCK-MDR1-BCRP (0.1 uM) Mean Efflux Ratio. How it is done:
In order to evaluate blood brain barrier (BBB) penetrant properties the efflux properties of compounds according to the specification was measured in cells transfected with the major efflux pumps expressed in the endothelial cells of the BBB. The assessment of efflux properties was performed using Madin-Darby Canine Kidney (MDCK) cells doubly transfected with MDR1 (Pgp) and BCRP. The transfected cell line, MDCK_MDR1_BCRP, thus expresses the two main efflux pumps that actively serve to exclude transit of compounds across the BBB and the efflux ration from these cell can be measured as described in the literature (Durant et al, Sci. Adv. 2018; eeat:1719). A compound that has an efflux ratio of 2 or less as measured by this technique is identified as having the potential for good BBB penetrant properties (Colclough et al, Drug Disc. Today 2019; 24(5), 1067-73).

T1 sequence (P01116 1-188 isoform P01116-2 G12C): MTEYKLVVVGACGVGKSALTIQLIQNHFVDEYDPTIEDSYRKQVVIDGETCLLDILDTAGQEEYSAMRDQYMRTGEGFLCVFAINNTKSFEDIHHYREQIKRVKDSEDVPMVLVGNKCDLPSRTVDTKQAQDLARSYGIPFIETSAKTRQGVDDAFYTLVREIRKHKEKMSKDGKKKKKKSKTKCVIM

As to `C=CC(=O)N1CCN2Cc3ccc(-c4c(C)ccc5[nH]ncc45)c(Cl)c3OC[C@@H]2C1` (single isomer, unassigned) [Example 4], at KRasG12C [1], the IC50 (usually the concentration needed to halve the response being measured) was 74 µM. The “KRasG12C M.S. Binding Mean adduct %” value on KRasG12C [2] worked out at 0%. The efflux ratio at 0.1 uM in the series with MDR1 (Pgp) and BCRP came out at 0.9.

The molecule `C=CC(=O)N1CCN2Cc3cc(F)c(-c4c(C)cccc4O)c(F)c3OC[C@H]2C1` (single isomer, unassigned) [Example 45] came in with an IC50 on KRasG12C [1] of 0.066 µM. Also, the “KRasG12C M.S. Binding Mean adduct %” value on KRasG12C [2] was found to be 97%. The efflux ratio at 0.1 uM in the series with MDR1 (Pgp) and BCRP was 1.3.

`C=CC(=O)N1CCN2Cc3cc(F)c(-c4c(O)cccc4Cl)c(F)c3OC[C@H]2C1` (single isomer, unassigned) [Example 43] came in with an IC50 at KRasG12C [1] of 0.033 µM. For the same molecule, the “KRasG12C M.S. Binding Mean adduct %” value on KRasG12C [2] is given as 95%. Also, the efflux ratio at 0.1 uM in the series with MDR1 (Pgp) and BCRP stood at 0.7.

Turning to `C=CC(=O)N1CCN2Cc3cc(F)c(-c4c(O)cccc4Cl)c(F)c3OC[C@H]2C1` (single isomer, unassigned) [Example 42], the IC50 on KRasG12C [1] was 2.61 µM. Further, on KRasG12C [2], the “KRasG12C M.S. Binding Mean adduct %” value worked out at 12%.
